The numbers were not newly measured in patent US4722394A, “Determining residual oil saturation by radioactively analyzing injected CO2 and base-generating tracer-providing solution” (Shell Oil Company, priority 1986, dated 1988), which cites them from elsewhere.

Turning to `O=C=O` [CO2, carbon dioxide], the “distribution coefficient, Ki (ratio of concentration of tracer in the oil phase to that in the water phase)” value was “about 2”.
